Laboratory results from patent US9993534B2, “Method of treating fungal infection” (Wisconsin Alumni Research Foundation, priority 2013, dated 2018).

Test system: 1807 cells
Assay type: cell-based, mouse
Conditions: Calnexin peptide #1, 13 amino acid sequence of the named species

LVLKSRAKHHAIS [Homo sapiens (Calmegin)]
1807 reactive: not reactive with the 1807 cells
